The values below are quoted from earlier work in PubChem BioAssay AID1259409 (Chemical Carcinogenesis Research Information System (CCRIS), 2018).

The subject of the data set is rodent chemically induced tumor inhibition, incidence and multiplicity. Kind of data set: CCRIS tumor inhibitor studies. The note with it: Dose [Inhibitor]: 0.

On to `O=C(OC[C@@H]1O[C@H](OC(=O)c2cc(O)c(O)c(OC(=O)c3cc(O)c(O)c(O)c3)c2)[C@@H](OC(=O)c2cc(O)c(O)c(OC(=O)c3cc(O)c(O)c(O)c3)c2)[C@H](OC(=O)c2cc(O)c(O)c(OC(=O)c3cc(O)c(O)c(O)c3)c2)[C@H]1OC(=O)c1cc(O)c(O)c(OC(=O)c2cc(O)c(O)c(O)c2)c1)c1cc(O)c(O)c(OC(=O)c2cc(O)c(O)c(O)c2)c1`, for which the “tumour outcome (control, treated, inhibition, significance)” value (Carcinogen: 7,12-DIMETHYLBENZ[A]ANTHRACENE : 57-97-6, 17 MG 2/WK FOR 20 WK APPLIED 24 HR POST EACH PROMOTER DOSE (STUDY DURATION: 22 WK), Route [Inhibitor]: DERMAL, Species: MOUSE, Strain/Sex: CF-1/FEMALE, Target Tissue: Type of Lesion: SKIN: PAPILLOMA, Dose [Carcinogen]: 25.6 UG IN 0.2 ML ACETONE ONCE, Promoter: 12-O-TETRADECANOYLPHORBOL-13-ACETATE, 16561-29-8) was 90%, 98%, -9%, not calculated; the “tumour outcome (control, treated, inhibition, significance)” value (Carcinogen: 7,12-DIMETHYLBENZ[A]ANTHRACENE, 57-97-6, 1% IN DIET FOR 35 WK BEGINNING POST CARCINOGEN DOSE (STUDY DURATION: 36 WK), Route [Inhibitor]: ORAL, Species: RAT, Strain/Sex: SPRAGUE-DAWLEY/FEMALE, Target Tissue: Type of Lesion: EAR DUCT: TUMOR, Dose [Carcinogen]: 50 MG/KG BW IN CORN OIL ONCE, Promoter: NONE USED) is on record as 5/15 (33%), 5/15 (33%), 0%, not significant; the “tumour outcome (control, treated, inhibition, significance)” value (Carcinogen: 7,12-DIMETHYLBENZ[A]ANTHRACENE, 57-97-6, 1% IN DIET FOR 35 WK BEGINNING POST CARCINOGEN DOSE (STUDY DURATION: 36 WK), Route [Inhibitor]: ORAL, Species: RAT, Strain/Sex: SPRAGUE-DAWLEY/FEMALE, Target Tissue: Type of Lesion: MAMMARY GLAND: ADENOCARCINOMA, Dose [Carcinogen]: 50 MG/KG BW IN CORN OIL ONCE, Promoter: NONE USED) is recorded as 14/15 (93%), 12/15 (80%), 14%, not significant; the “tumour outcome (control, treated, inhibition, significance)” value (Carcinogen: 7,12-DIMETHYLBENZ[A]ANTHRACENE, 57-97-6, 1% IN DIET FOR 35 WK BEGINNING POST CARCINOGEN DOSE (STUDY DURATION: 36 WK), Route [Inhibitor]: ORAL, Species: RAT, Strain/Sex: SPRAGUE-DAWLEY/FEMALE, Target Tissue: Type of Lesion: MAMMARY GLAND: FIBROADENOMA, Dose [Carcinogen]: 50 MG/KG BW IN CORN OIL ONCE, Promoter: NONE USED) was 3/15 (20%), 2/15 (13%), 35%, not significant; the “tumour outcome (control, treated, inhibition, significance)” value (Carcinogen: 7,12-DIMETHYLBENZ[A]ANTHRACENE, 57-97-6, 2.5 UMOL IN 0.4 ML ACETONE 20 MIN PRIOR TO EACH PROMOTER DOSE (STUDY DURATION: 47 WK), Route [Inhibitor]: DERMAL, Species: MOUSE, Strain/Sex: CF-1/FEMALE, Target Tissue: Type of Lesion: SKIN: PAPILLOMA, Dose [Carcinogen]: 100 NMOL IN 0.2 ML ACETONE ONCE) is reported as 94%, 61%, 35%, not calculated; the “tumour outcome (control, treated, inhibition, significance)” value (Carcinogen: 7,12-DIMETHYLBENZ[A]ANTHRACENE, 57-97-6, 5 UMOL IN 0.4 ML ACETONE 20 MIN PRIOR TO EACH PROMOTER DOSE (STUDY DURATION: 47 WK), Route [Inhibitor]: DERMAL, Species: MOUSE, Strain/Sex: CF-1/FEMALE, Target Tissue: Type of Lesion: SKIN: PAPILLOMA, Dose [Carcinogen]: 100 NMOL IN 0.2 ML ACETONE ONCE) was 94%, 46%, 51%, not calculated. Further, the “tumour outcome (control, treated, inhibition, significance)” value is recorded as 67%, 11%, 84%, not calculated (Carcinogen: 7,12-DIMETHYLBENZ[A]ANTHRACENE, 57-97-6, 10 UMOL IN 0.4 ML ACETONE 20 MIN PRIOR TO EACH PROMOTER DOSE (STUDY DURATION: 47 WK), Route [Inhibitor]: DERMAL, Species: MOUSE, Strain/Sex: CF-1/FEMALE, Target Tissue: Type of Lesion: SKIN: CARCINOMA, Dose [Carcinogen]: 100 NMOL IN 0.2 ML ACETONE ONCE); 94%, 43%, 54%, not calculated (Carcinogen: 7,12-DIMETHYLBENZ[A]ANTHRACENE, 57-97-6, 10 UMOL IN 0.4 ML ACETONE 20 MIN PRIOR TO EACH PROMOTER DOSE (STUDY DURATION: 47 WK), Route [Inhibitor]: DERMAL, Species: MOUSE, Strain/Sex: CF-1/FEMALE, Target Tissue: Type of Lesion: SKIN: PAPILLOMA, Dose [Carcinogen]: 100 NMOL IN 0.2 ML ACETONE ONCE); 90%, 94%, -4%, not calculated (Carcinogen: 7,12-DIMETHYLBENZ[A]ANTHRACENE, 57-97-6, 17 MG 2/WK FOR 2 WK APPLIED 20 MIN PRIOR TO EACH TPA DOSE (STUDY DURATION: 22 WK), Route [Inhibitor]: DERMAL, Species: MOUSE, Strain/Sex: SENCAR/FEMALE, Target Tissue: Type of Lesion: SKIN: PAPILLOMA, Dose [Carcinogen]: 6.4 UG IN 0.2 ML ACETONE ONCE, Promoter: 12-O-TETRADECANOYLPHORBOL-13-ACETATE, 16561-29-8, MEZEREIN, 34807-41-5, Promoter: 12-O-TETRADECANOYLPHORBOL-13-ACETATE, 16561-29-8, MEZEREIN, 34807-41-5); 90%, 62%, 31%, not calculated (Carcinogen: 7,12-DIMETHYLBENZ[A]ANTHRACENE, 57-97-6, 17 MG 2/WK FOR 18 WK APPLIED 20 MIN PRIOR TO EACH MEZEREIN DOSE (STUDY DURATION: 22 WK), Route [Inhibitor]: DERMAL, Species: MOUSE, Strain/Sex: SENCAR/FEMALE, Target Tissue: Type of Lesion: SKIN: PAPILLOMA, Dose [Carcinogen]: 6.4 UG IN 0.2 ML ACETONE ONCE, Promoter: 12-O-TETRADECANOYLPHORBOL-13-ACETATE, 16561-29-8 : MEZEREIN, 34807-41-5, Promoter: 12-O-TETRADECANOYLPHORBOL-13-ACETATE, 16561-29-8 : MEZEREIN, 34807-41-5); 90%, 16%, 82%, not calculated (Carcinogen: 7,12-DIMETHYLBENZ[A]ANTHRACENE, 57-97-6, 17 MG 2/WK FOR 20 WK APPLIED 20 MIN PRIOR TO AND 24 HR POST EACH PROMOTER DOSE (STUDY DURATION: 22 WK), Route [Inhibitor]: DERMAL, Species: MOUSE, Strain/Sex: CF-1/FEMALE, Target Tissue: Type of Lesion: SKIN: PAPILLOMA, Dose [Carcinogen]: 25.6 UG IN 0.2 ML ACETONE ONCE, Promoter: 12-O-TETRADECANOYLPHORBOL-13-ACETATE, 16561-29-8).
